The text below walks through data of patent US10246453B2, “Benzenesulfonamide compounds and their use as therapeutic agents” (Xenon Pharmaceuticals Inc., priority 2016, dated 2019).

A word on the IC50: it is the concentration needed to halve the response being measured.

Structures can show the parent of a compound that is named as a salt.

Series [1] concerns the target T1, NaV1.1 (Homo sapiens (Human), UniProt P35498). Description: Sodium Influx Assay (Flux), NaV1.1. It counts as cell-based. The settings on record: Trex HEK293 cells, ANG2 dye; arithmetic mean.
For the next series, the target named is NaV1.5 (Homo sapiens (Human), UniProt Q14524). Description: Sodium Influx Assay (Flux), NaV1.5. To be noted: read-out: Flux NaV1.5 IC50; Trex HEK293 cells, ANG2 dye; arithmetic mean.
For series [2], the target named is T2, NaV1.6 (Homo sapiens (Human), UniProt Q9UQD0). Description: Sodium Influx Assay (Flux), NaV1.6. The settings on record: read-out: Flux NaV1.6 IC50; Trex HEK293 cells, ANG2 dye; arithmetic mean.
Series [3] concerns the target T2, NaV1.6. Description: Electrophysiological Assay (EP), patch voltage clamp, NaV1.6. In kind it is cell-based. To be noted: HEK-293 cells, whole-cell patch clamp, inactivated state; arithmetic mean. The source says:
Patch voltage clamp electrophysiology allows for the direct measurement and quantification of block of voltage-gated sodium channels (Nay's), and allows the determination of the time-and voltage-dependence of block which has been interpreted as differential binding to the resting, open, and inactivated states of the sodium channel (Hille, B., Journal of General Physiology (1977), 69: 497-515).
NaV1.1, NaV1.5 and NaV1.6 cDNAs (NM_001165964 (SCN1A), NM_000335 (SCN5A) and NM_014191 (SCN8A), respectively) were stably expressed in HEK-293 cells.
(§1) Sodium currents were measured using the patch clamp technique in the whole-cell configuration using either a PatchXpress automated voltage clamp or manually using an Axopatch 200B (Axon Instruments) or Model 2400 (A-M systems) amplifier.
The manual voltage clamp protocol was as follows: Borosilicate glass micropipettes were fire-polished to a tip diameter yielding a resistance of 2-4 Mohms in the working solutions. […] In some studies, the external sodium was reduced by equimolar replacement with choline. Osmolarity in the CsF internal and NaCl external solutions was adjusted to 300 mOsm/kg and 310 mOsm/kg with glucose, respectively. All recordings were performed at ambient temperature in a bath chamber with a volume of 150 μL. Control sodium currents were measured in 0.5% DMSO. Controls and representative compounds of the invention were applied to the recording chamber through a 4-pinch or 8-pinch valve bath perfusion system manufactured by ALA Scientific Instruments.
Currents were recorded at 40 kHz sampling frequency, filtered at […], and stored using a Digidata-1322A analogue/digital interface with the pClamp software (Axon Instruments). Series resistance compensation was applied (60-80%). […] All statistics in this study are given as mean±SD.
The membrane potential was maintained at a voltage where inactivation of the channel is complete. The voltage is then stepped back to a very negative (Vhold=−150 mV) voltage for 20 ms and then a test pulse is applied to quantify the compound block. The 20 ms brief repolarization was long enough for compound-free channels to completely recover from fast inactivation, but the compound-bound channels recovered more slowly such that negligible recovery could occur during this interval. The percent decrease in sodium current following wash-on of compound was taken as the percent block of sodium channels.

In series [4] the target is T1, NaV1.1. Description: Electrophysiological Assay (EP), patch voltage clamp, NaV1.1. It counts as cell-based. To be noted: HEK-293 cells, whole-cell patch clamp, inactivated state; arithmetic mean. The procedure:
as §1
In some studies, the external sodium was reduced by equimolar replacement with choline. […] All recordings were performed at ambient temperature in a bath chamber with a volume of 150 μL. Control sodium currents were measured in 0.5% DMSO. Controls and representative compounds of the invention were applied to the recording chamber through a 4-pinch or 8-pinch valve bath perfusion system manufactured by ALA Scientific Instruments.
Series resistance compensation was applied (60-80%). […] All statistics in this study are given as mean±SD.
The membrane potential was maintained at a voltage where inactivation of the channel is complete. The voltage is then stepped back to a very negative (Vhold=−150 mV) voltage for 20 ms and then a test pulse is applied to quantify the compound block. […] The percent decrease in sodium current following wash-on of compound was taken as the percent block of sodium channels.
(In general: Patch clamp records ionic current or voltage across a cell membrane.)

NaV1.5, sequence (Q14524 other isoform, or with tags, fused parts or gaps): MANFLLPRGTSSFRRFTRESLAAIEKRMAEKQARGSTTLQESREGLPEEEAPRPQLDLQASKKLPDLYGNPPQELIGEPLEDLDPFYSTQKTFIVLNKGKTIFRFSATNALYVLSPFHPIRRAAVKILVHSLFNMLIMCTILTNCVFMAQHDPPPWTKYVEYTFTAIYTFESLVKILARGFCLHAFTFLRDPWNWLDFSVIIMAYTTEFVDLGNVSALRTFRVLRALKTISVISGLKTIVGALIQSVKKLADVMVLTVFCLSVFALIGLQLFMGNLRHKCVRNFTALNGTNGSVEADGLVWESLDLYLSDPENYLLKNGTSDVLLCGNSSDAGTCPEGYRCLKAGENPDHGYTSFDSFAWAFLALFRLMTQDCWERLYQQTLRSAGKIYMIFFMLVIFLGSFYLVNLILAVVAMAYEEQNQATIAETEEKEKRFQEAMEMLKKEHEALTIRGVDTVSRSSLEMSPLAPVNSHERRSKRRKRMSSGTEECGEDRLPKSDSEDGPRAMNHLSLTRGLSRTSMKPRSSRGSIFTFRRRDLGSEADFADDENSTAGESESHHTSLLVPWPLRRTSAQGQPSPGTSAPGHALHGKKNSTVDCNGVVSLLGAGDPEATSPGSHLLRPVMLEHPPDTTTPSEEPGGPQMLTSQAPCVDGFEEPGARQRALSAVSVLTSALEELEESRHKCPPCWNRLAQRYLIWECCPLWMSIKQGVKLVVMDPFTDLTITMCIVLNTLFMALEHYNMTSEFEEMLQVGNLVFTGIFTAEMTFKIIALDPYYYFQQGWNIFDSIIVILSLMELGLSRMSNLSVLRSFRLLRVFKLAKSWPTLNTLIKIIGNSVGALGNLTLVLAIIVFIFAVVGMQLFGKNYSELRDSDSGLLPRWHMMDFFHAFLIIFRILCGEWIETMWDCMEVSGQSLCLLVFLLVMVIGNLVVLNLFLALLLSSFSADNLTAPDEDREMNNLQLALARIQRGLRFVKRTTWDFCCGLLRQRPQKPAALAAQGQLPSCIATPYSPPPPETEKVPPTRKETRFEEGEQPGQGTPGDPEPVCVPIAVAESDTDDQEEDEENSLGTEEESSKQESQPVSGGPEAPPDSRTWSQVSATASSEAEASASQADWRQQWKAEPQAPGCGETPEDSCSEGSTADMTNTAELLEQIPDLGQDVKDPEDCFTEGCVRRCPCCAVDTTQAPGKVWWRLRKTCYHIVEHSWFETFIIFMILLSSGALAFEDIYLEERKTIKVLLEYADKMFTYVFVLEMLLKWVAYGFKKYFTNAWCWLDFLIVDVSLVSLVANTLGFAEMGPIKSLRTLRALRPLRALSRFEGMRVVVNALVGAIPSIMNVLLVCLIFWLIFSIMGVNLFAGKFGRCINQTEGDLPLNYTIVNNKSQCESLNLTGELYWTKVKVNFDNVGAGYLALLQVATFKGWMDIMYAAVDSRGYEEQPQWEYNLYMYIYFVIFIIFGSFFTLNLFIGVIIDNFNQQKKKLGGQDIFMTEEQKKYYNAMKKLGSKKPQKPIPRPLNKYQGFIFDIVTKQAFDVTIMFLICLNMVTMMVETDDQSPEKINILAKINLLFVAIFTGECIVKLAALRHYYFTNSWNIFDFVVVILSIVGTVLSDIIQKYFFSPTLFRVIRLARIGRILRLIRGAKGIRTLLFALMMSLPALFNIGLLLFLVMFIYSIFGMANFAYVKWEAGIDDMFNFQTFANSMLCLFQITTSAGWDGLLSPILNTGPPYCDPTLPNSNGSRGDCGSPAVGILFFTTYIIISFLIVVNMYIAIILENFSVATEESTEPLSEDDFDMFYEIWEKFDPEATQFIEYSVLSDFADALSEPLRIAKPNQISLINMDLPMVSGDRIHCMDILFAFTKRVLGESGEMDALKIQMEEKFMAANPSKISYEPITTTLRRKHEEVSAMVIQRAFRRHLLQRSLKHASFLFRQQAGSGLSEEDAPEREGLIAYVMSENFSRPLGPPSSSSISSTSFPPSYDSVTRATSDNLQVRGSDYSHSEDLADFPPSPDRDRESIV
T2 sequence (Q9UQD0 whole entry): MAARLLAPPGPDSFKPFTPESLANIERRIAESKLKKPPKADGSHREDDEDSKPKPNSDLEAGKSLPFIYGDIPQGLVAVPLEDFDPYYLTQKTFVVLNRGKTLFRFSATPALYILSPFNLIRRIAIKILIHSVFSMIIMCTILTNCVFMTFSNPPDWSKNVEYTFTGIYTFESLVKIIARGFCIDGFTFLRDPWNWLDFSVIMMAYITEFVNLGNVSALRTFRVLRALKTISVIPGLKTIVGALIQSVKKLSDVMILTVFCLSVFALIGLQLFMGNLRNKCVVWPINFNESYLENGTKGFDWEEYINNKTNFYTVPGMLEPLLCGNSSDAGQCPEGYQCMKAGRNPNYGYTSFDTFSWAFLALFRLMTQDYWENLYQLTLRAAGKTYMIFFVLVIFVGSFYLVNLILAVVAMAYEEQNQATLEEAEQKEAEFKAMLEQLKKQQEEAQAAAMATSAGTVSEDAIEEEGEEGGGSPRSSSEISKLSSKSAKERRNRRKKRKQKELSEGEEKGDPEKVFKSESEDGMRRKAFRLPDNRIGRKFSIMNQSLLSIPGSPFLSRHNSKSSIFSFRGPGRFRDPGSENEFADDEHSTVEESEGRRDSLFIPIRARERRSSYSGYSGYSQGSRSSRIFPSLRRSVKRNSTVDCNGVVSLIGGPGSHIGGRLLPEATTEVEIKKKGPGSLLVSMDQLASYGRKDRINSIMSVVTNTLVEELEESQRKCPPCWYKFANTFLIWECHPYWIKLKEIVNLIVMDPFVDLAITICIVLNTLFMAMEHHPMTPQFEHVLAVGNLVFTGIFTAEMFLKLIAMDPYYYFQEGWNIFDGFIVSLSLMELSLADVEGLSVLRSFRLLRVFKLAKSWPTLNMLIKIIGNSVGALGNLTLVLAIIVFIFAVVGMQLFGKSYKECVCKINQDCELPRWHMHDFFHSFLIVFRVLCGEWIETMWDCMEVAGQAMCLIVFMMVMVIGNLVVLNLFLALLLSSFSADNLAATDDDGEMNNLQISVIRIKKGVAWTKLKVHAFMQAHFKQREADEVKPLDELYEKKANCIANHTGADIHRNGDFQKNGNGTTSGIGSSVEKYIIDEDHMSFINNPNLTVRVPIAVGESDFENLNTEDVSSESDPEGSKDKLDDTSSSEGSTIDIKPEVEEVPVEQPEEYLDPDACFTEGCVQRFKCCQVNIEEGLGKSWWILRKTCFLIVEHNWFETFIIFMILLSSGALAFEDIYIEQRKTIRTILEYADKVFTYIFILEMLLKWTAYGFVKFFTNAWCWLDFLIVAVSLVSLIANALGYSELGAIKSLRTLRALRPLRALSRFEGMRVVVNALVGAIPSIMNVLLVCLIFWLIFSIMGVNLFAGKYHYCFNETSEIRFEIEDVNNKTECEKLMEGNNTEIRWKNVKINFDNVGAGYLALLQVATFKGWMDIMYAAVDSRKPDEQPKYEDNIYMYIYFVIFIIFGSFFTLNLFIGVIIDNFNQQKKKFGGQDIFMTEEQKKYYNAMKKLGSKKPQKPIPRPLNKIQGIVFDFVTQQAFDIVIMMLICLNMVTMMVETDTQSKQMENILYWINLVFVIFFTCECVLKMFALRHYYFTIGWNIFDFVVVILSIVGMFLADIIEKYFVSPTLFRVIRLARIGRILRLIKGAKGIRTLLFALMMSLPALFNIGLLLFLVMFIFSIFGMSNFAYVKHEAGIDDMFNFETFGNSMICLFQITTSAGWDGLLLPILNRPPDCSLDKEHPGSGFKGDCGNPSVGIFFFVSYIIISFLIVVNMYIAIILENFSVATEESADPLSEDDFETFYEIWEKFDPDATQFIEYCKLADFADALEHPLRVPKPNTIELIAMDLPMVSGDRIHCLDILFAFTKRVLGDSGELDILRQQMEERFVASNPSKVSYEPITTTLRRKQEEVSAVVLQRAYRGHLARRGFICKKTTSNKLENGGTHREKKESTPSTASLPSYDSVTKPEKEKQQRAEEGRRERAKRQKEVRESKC

As for `CN(c1ccc(S(=O)(=O)Nc2ncns2)cc1Cl)[C@@H]1CCN(Cc2ccccc2)C1` [Example 68, (R)-4-((1-benzylpyrrolidin-3-yl)(methyl)amino)-3-chloro-N-(1,2,4-thiadiazol-5-yl)benzenesulfonamide 2,2,2-trifluoroacetate], the IC50 against NaV1.1 [1] was above 30 µM; on NaV1.5 it was above 30 µM; on NaV1.6 [2], 1.41 µM; at NaV1.6 [3] it was 2.92 µM; against NaV1.1 [4] it was above 10 µM.

Turning to `O=S(=O)(Nc1nccs1)c1ccc(N[C@@H]2CCN(Cc3ccccc3)C2)c(Cl)c1` [Example 79, (R)-4-(1-benzylpyrrolidin-3-ylamino)-3-chloro-N-(thiazol-2-yl)benzenesulfonamide], the IC50 against NaV1.1 [1] is 6.34 µM; on NaV1.5, above 30 µM; at NaV1.6 [2], 0.57 µM; against NaV1.6 [3], 0.138 µM; on NaV1.1 [4] it was above 10 µM.

In the case of `CN(c1ccc(S(=O)(=O)Nc2nccs2)cc1Cl)[C@H]1CCN(Cc2ccccc2)C1` [Example 80, (S)-4-((1-benzylpyrrolidin-3-yl)(methyl)amino)-3-chloro-N-(thiazol-2-yl)benzenesulfonamide], the IC50 was 12.2 µM against NaV1.1 [1]; 29.1 µM at NaV1.5; 0.378 µM at NaV1.6 [2]; 0.124 µM against NaV1.6 [3]; above 10 µM against NaV1.1 [4].

For `Cc1cccc(CN2CCC(Oc3ccc(S(=O)(=O)Nc4nccs4)cc3Cl)CC2)n1` [Example 82, 3-chloro-4-(1-((6-methylpyridin-2-yl)methyl)piperidin-4-yloxy)-N-(thiazol-2-yl)benzenesulfonamide], the half-inhibitory concentration (IC50) on NaV1.1 [1] was above 30 µM; on NaV1.5 it was above 30 µM; on NaV1.6 [2] it was 0.423 µM; against NaV1.6 [3], 0.056 µM; against NaV1.1 [4] it was above 10 µM.

For `Cc1cccc(CN2CC[C@H](N(C)c3ccc(S(=O)(=O)Nc4ncns4)cc3Cl)C2)c1` [Example 83, (S)-3-chloro-4-(methyl(1-(3-methylbenzyl)pyrrolidin-3-yl)amino)-N-(1,2,4-thiadiazol-5-yl)benzenesulfonamide], the 50% inhibitory concentration (IC50) against NaV1.1 [1] is above 30 µM; on NaV1.5 it was above 30 µM; at NaV1.6 [2] it was 0.029 µM; against NaV1.6 [3] it was 0.036 µM; against NaV1.1 [4], above 10 µM.

For the compound `O=S(=O)(Nc1nccs1)c1cc(Cl)c(N[C@H]2CCN(Cc3ccccc3)C2)cc1F` [Example 87, (S)-4-(1-benzylpyrrolidin-3-ylamino)-5-chloro-2-fluoro-N-(thiazol-2-yl)benzenesulfonamide], the half-maximal inhibitory concentration (IC50) is 5.96 µM on NaV1.1 [1]; 14.3 µM on NaV1.5; 0.744 µM at NaV1.6 [2]; 0.393 µM against NaV1.6 [3]; 7.28 µM on NaV1.1 [4].

For the compound `Cc1cccc(CN2CC[C@@H](Nc3cc(F)c(S(=O)(=O)Nc4nccs4)cc3Cl)C2)c1` [Example 88, (R)-5-chloro-2-fluoro-4-(1-(3-methylbenzyl)pyrrolidin-3-ylamino)-N-(thiazol-2-yl)benzenesulfonamide], the 50% inhibitory concentration (IC50) came out at 1.59 µM on NaV1.1 [1]; 5.91 µM on NaV1.5; 0.381 µM at NaV1.6 [2]; 0.039 µM at NaV1.6 [3]; 1.25 µM at NaV1.1 [4].

With `O=S(=O)(Nc1nccs1)c1cc(Cl)c(N[C@@H]2CCN(Cc3ccccc3)C2)cc1F` [Example 89, (R)-4-(1-benzylpyrrolidin-3-ylamino)-5-chloro-2-fluoro-N-(thiazol-2-yl)benzenesulfonamide], the IC50 on NaV1.1 [1] is 2.13 µM; at NaV1.5 it was 12 µM; at NaV1.6 [2], 0.501 µM; against NaV1.6 [3] it was 0.091 µM; at NaV1.1 [4] it was 2.87 µM.

Consider `Cc1cccc(CN2CCC(Oc3ccc(S(=O)(=O)Nc4nccs4)cc3Cl)CC2)c1` [Example 92, 3-chloro-4-(1-(3-methylbenzyl)piperidin-4-yloxy)-N-(thiazol-2-yl)benzenesulfonamide], for which the 50% inhibitory concentration (IC50) against NaV1.1 [1] was 6.4 µM; on NaV1.5, 3.64 µM; at NaV1.6 [2] it was 0.203 µM; against NaV1.6 [3], 0.081 µM; on NaV1.1 [4], 7.53 µM.

`O=S(=O)(Nc1ncns1)c1ccc(OC2CCN(Cc3ccccc3)CC2)c(Cl)c1` [Example 100, 4-(1-benzylpiperidin-4-yloxy)-3-chloro-N-(1,2,4-thiadiazol-5-yl)benzenesulfonamide 2,2,2-trifluoroacetate]: the IC50 on NaV1.1 [1] was 30 µM; on NaV1.5, above 30 µM; at NaV1.6 [2], 0.19 µM; against NaV1.6 [3] it was 0.164 µM; against NaV1.1 [4] it was above 10 µM.

For `CN(c1cc(F)c(S(=O)(=O)Nc2cscn2)c(F)c1Cl)[C@H]1CCN(Cc2ccccc2)C1` [Example 102, (S)-4-((1-benzylpyrrolidin-3-yl)(methyl)amino)-3-chloro-2,6-difluoro-N-(thiazol-4-yl)benzenesulfonamide formate], the IC50 against NaV1.1 [1] was above 30 µM; on NaV1.5, above 30 µM; on NaV1.6 [2] it was 0.703 µM; at NaV1.6 [3] it was 0.152 µM; on NaV1.1 [4] it was above 10 µM.

Take `Cc1cccc(CN2CC[C@H](N(C)c3cc(F)c(S(=O)(=O)Nc4cscn4)c(F)c3C)C2)n1` [Example 104, (S)-2,6-difluoro-3-methyl-4-(methyl(1-((6-methylpyridin-2-yl)methyl)pyrrolidin-3-yl)amino)-N-(thiazol-4-yl)benzenesulfonamide formate]: the half-inhibitory concentration (IC50) against NaV1.1 [1] was above 30 µM; at NaV1.5, above 30 µM; on NaV1.6 [2] it was 0.026 µM; on NaV1.6 [3], 0.011 µM; against NaV1.1 [4], above 10 µM.

As for `O=S(=O)(Nc1cscn1)c1c(F)cc(OC2CCN(Cc3ccccc3)CC2)c(Cl)c1F` [Example 105, 4-((1-benzylpiperidin-4-yl)oxy)-3-chloro-2,6-difluoro-N-(thiazol-4-yl)benzenesulfonamide formate], the half-maximal inhibitory concentration (IC50) against NaV1.1 [1] was 27.6 µM; on NaV1.5, 17.6 µM; on NaV1.6 [2], 0.268 µM; on NaV1.6 [3] it was 0.151 µM; against NaV1.1 [4] it was above 10 µM.

Take `Cc1c(OC2CCN(Cc3ccccc3)CC2)cc(F)c(S(=O)(=O)Nc2cscn2)c1F` [Example 106, 4-((1-benzylpiperidin-4-yl)oxy)-2,6-difluoro-3-methyl-N-(thiazol-4-yl)benzenesulfonamide formate]: the IC50 on NaV1.1 [1] was 23.2 µM; at NaV1.5 it was 20.6 µM; on NaV1.6 [2], 0.099 µM; against NaV1.6 [3] it was 0.034 µM; against NaV1.1 [4] it was above 10 µM.

As to `Cc1cccc(CN2CC[C@H](N(C)c3cc(F)c(S(=O)(=O)Nc4cscn4)cc3Cl)C2)n1` [Example 192, (S)-5-chloro-2-fluoro-4-(methyl(1-((6-methylpyridin-2-yl)methyl)pyrrolidin-3-yl)amino)-N-(thiazol-4-yl)benzene-sulfonamide], the IC50 against NaV1.1 [1] was above 30 µM; at NaV1.5, above 30 µM; on NaV1.6 [2], 0.857 µM; against NaV1.6 [3], 0.37 µM; at NaV1.1 [4], above 10 µM.

For the compound `CN(c1cc(F)c(S(=O)(=O)Nc2cscn2)cc1Cl)[C@H]1CCN(Cc2cccc(C(F)F)c2)C1` [Example 193, (S)-5-chloro-4-((1-(3-(difluoromethyl)benzyl)-pyrrolidin-3-yl)(methyl)amino)-2-fluoro-N-(thiazol-4-yl)benzene-sulfonamide], the 50% inhibitory concentration (IC50) on NaV1.1 [1] is 3.57 µM; at NaV1.5 it was 9.02 µM; on NaV1.6 [2] it was 0.774 µM; at NaV1.6 [3] it was 0.33 µM; on NaV1.1 [4], above 10 µM.
